Test results as given in patent US3939277A, “Insecticidal biodegradable analogues of DDT” (priority 1973, dated 1976).
≈ marks a conversion by molar mass, not a printed value.

Legend:
[1] = tested on: female house flies, Musca domestica, susceptible (SNAIDM); assay: Topical application to female house flies, susceptible (SNAIDM) strain; settings: read-out: topical LD50 female housefly, Susceptible
Experimental: (§1) Compositions of the present invention were tested for insecticidal activities determined by standard methods, and compared with the activities of DDT and other symmetrical analogues of DDT, e.g. methoxychlor. In these tests, female house flies, Musca domestica, under CO2 anesthesia, were treated with topical application of 1 ul drops of w/v solutions of the insecticides in acetone. Three replicates of 20 flies 2-4 days old were treated on the pronotum at each dosage, and at least 5 dosages were used to establish each dosage versus mortality curve. Mortalities were determined by holding the flies at 72° F. (22° C.) with 40% sucrose solution as food. Topical applications were made to both susceptible (SNAIDM) and DDT-resistant (Rsp) strains in exactly the same manner. The results of these evaluations are reported in Table II as LD50 values in ug. of toxicant per gram of insect using the average weight of the house fly as 20 mg. Evaluations of the toxicity of the same compositions to the larvae of the mosquitoes Culex pipiens quinquefasciatus and Anopheles albimanus were made as described by WHO (VBC/1968) and the results are also shown in Table II.

[2] = tested on: female house flies, Musca domestica, DDT-resistant (Rsp); assay: Topical application to female house flies, DDT-resistant (Rsp) strain; settings: read-out: topical LD50 female housefly, DDT-resistant
Experimental: as §1

[3] = tested on: larvae of the mosquito Culex pipiens quinquefasciatus; assay: Toxicity to mosquito larvae as described by WHO (VBC/1968), Culex pipiens quinquefasciatus; format: in vivo
[4] = tested on: larvae of the mosquito Anopheles albimanus; assay: Toxicity to mosquito larvae as described by WHO (VBC/1968), Anopheles albimanus; format: in vivo
[5] = tested on: multifunction oxidase (MFO) enzymes; settings: background statement; cited from earlier work
[6] = tested on: insects; settings: background statement, cited from earlier work; for insecticidal activity (in words): compared with DDT towards other species of insects; for insecticidal activity (in words), general: toward certain species of insects
[7] = background statement; cited from earlier work

With COc1ccc(C(c2ccc(SC)cc2)C(Cl)(Cl)Cl)cc1 (stereo not drawn) [Example I, 2-(p-methoxyphenyl)-2-(p-methylthiophenyl)-1,1,1-trichloroethane] the LD50 [1] was 23.5 mg/kg, the LD50 [2] was 80 mg/kg and the LC50 [3] was 0.11 µg/mL (≈ 0.304 µM). It also gave an LC50 [4] of 0.044 µg/mL (≈ 0.122 µM).
Compound COc1ccc(C(c2ccc(OC)cc2)C(Cl)(Cl)Cl)cc1 [Methoxychlor, 1,1,1-trichloro-2,2-bis-(pmethoxyphenyl)ethane, reference compound] has an LD50 [1] of 45 mg/kg, an LD50 [2] of 48 mg/kg and an LC50 [3] of 0.067 µg/mL (≈ 0.194 µM). The LC50 [4] was 0.18 µg/mL (≈ 0.521 µM), the “susceptibility to attack / detoxication by MFO enzymes” value [5] was “readily attacked by MFO enzymes” and the “insecticidal activity (in words)” value [6] was “considerably less insecticidal activity than DDT towards other species of insects”. The “insecticidal activity (in words), general” value [6] was “satisfactory insecticidal activity toward certain species of insects”.
For ClC(Cl)=C(c1ccc(Cl)cc1)c1ccc(Cl)cc1 [DDE, 1,1-dichloro-2,2-bis-(p-chloro-phyenyl)ethylene], the “susceptibility to attack / detoxication by MFO enzymes” value [5] is listed as “highly resistant to detoxication by MFO enzymes”.
With COc1ccc(C(c2ccc(C)cc2)C(Cl)(Cl)Cl)cc1 (stereo not drawn) [Example III] the LD50 [1] was 23.5 mg/kg, the LD50 [2] was 62.5 mg/kg and the LC50 [3] was 0.085 µg/mL (≈ 0.258 µM). For the same compound, the LC50 [4] was 0.12 µg/mL (≈ 0.364 µM).
CCOc1ccc(C(c2ccc(C)cc2)C(Cl)(Cl)Cl)cc1 (stereo not drawn) [Example IV] gave an LD50 [1] of 9 mg/kg, an LD50 [2] of 27 mg/kg and an LC50 [3] of 0.13 µg/mL (≈ 0.378 µM). The LC50 [4] was 0.11 µg/mL (≈ 0.32 µM).
For Cc1ccc(C(c2ccc(C)cc2)C(Cl)(Cl)Cl)cc1 [methylchor, 1,1,1-trichloro-2,2-bis (p methylphenyl)ethane], the “insecticidal activity (in words)” value [6] is listed as “considerably less insecticidal activity than DDT towards other species of insects” and the “insecticidal activity (in words), general” value [6] is listed as “satisfactory insecticidal activity toward certain species of insects”.
In the case of CSc1ccc(C(c2ccc(SC)cc2)C(Cl)(Cl)Cl)cc1 [methiochlor, 1,1,1-trichloro-2,2-bis-(pmethiophenyl)ethane], the “susceptibility to attack / detoxication by MFO enzymes” value [5] is given as “readily attacked by MFO enzymes”, the “insecticidal activity (in words)” value [6] is given as “considerably less insecticidal activity than DDT towards other species of insects” and the “insecticidal activity (in words), general” value [6] is given as “satisfactory insecticidal activity toward certain species of insects”.
For Clc1ccc(C(c2ccc(Cl)cc2)C(Cl)Cl)cc1 [DDD, 1,1-dichloro 2,2-bis-(p-chlorophenyl) ethane], the “susceptibility to attack / detoxication by MFO enzymes” value [5] is given as “highly resistant to detoxication by MFO enzymes”.
Compound CCCOc1ccc(C(c2ccc(C)cc2)C(Cl)(Cl)Cl)cc1 (stereo not drawn) [Example V] has an LD50 [1] of 20 mg/kg, an LD50 [2] of 55 mg/kg and an LC50 [3] of 0.04 µg/mL (≈ 0.112 µM). For the same compound, the LC50 [4] was 0.2 µg/mL (≈ 0.559 µM).
Work on CCc1ccc(C(c2ccc(C)cc2)C(Cl)(Cl)Cl)cc1 (stereo not drawn) [Example VI] yielded an LD50 [1] of 11 mg/kg, an LD50 [2] of 28 mg/kg and an LC50 [3] of 0.08 µg/mL (≈ 0.244 µM). For the same compound, the LC50 [4] was 0.23 µg/mL (≈ 0.702 µM).
Clc1ccc(C(c2ccc(Cl)cc2)C(Cl)(Cl)Cl)cc1 [DDT, 1,1,1-trichloro-2,2-bis(p-chlorophenyl)ethane, reference compound] showed an LD50 [1] of 14 mg/kg, an LD50 [2] of 170 mg/kg and an LC50 [3] of 0.07 µg/mL (≈ 0.197 µM). For the same compound, the LC50 [4] was 0.016 µg/mL (≈ 0.0451 µM), the “susceptibility to attack / detoxication by MFO enzymes” value [5] was “highly resistant to detoxication by MFO enzymes” and the lipid solubility [7] was “high lipid solubility”. The water solubility [7] was “very low water solubility”.
In the case of CCOc1ccc(C(c2ccc(SC)cc2)C(Cl)(Cl)Cl)cc1 (stereo not drawn) [Example II], the LD50 [1] is reported as 32 mg/kg, the LD50 [2] is reported as 85 mg/kg and the LC50 [3] is reported as 0.07 µg/mL (≈ 0.186 µM). The LC50 [4] was 0.054 µg/mL (≈ 0.144 µM).
